Measured values as given in patent publication US20110165173A1, “THERAPEUTIC AGENT AND DETECTION REAGENT FOR ARTERIOSCLEROTIC DISEASE WHICH TARGETS FOR SALUSIN” (PROTEINEXPRESS CO., LTD., priority 2007, published 2011).

Tests used:
[1] = system: scavenger receptor class A (SR-A) activity; assay: Scavenger receptor class A (SR-A) activity: [125I]AcLDL association and degradation assays; type: cell-based, human; conditions: 0.6 nM; 5 to 10 μg/mL [125I]AcLDL, 18 hours
Excerpt: A scavenger receptor is a lipoprotein receptor expressed on macrophages. It recognizes modified LDL such as oxidized LDL or AcLDL, leading to endocytosis. A ligand of such receptor that has been incorporated into a cell is degraded in the lysosome. Such scavenger receptor plays a very important role on formation of foam cells from macrophages. Known examples of a scavenger receptor include a scavenger receptor class A (SR-A), CD36, lectin-like oxidized LDL receptor-1 (LOX-1), and CD68 [Greaves D R et al., J Lipid Res. 2005; 46: 11-20.]. Oxidized LDL can bind to the four types of the above scavenger receptors. However, the only scavenger receptor to which AcLDL binds is SR-A. In this experiment, AcLDL, which is a representative example of modified LDL, was used as a ligand and the activity of SR-A serving an exclusive scavenger receptor capable of recognizing AcLDL was assayed (FIG. 9).
Peripheral blood human monocytes (4×10^6cells/6 cm dish) were cultured for 7 days in an RPMI-1640 medium (2 mL) containing 10% human serum so as to differentiate into macrophages. At such time, 0.6 nM salusin-α or salusin-β was added during culture to examine effects of salusin-α and salusin-β on the endocytosis activity (SR-A activity) of [^125I]AcLDL. On Day 7, the medium was changed. An adequate amount of medium was added to [^125I]AcLDL (5 to 10 μg/mL) and 0.6 nM salusin-α or salusin-β so as to result in a total amount of 2 mL. The cells were further cultured for 18 hours.
The cells were washed once with PBS containing 3% BSA and then washed twice with PBS. 0.1 N NaOH (1 mL) was added thereto and the resultant was allowed to stand at room temperature for 30 minutes. The cells were recovered into a polystyrene tube (12×75 mm, Fisher Scientific Company), further washed with 0.1 N NaOH (1 mL), and recovered again. The total amount of the cell extraction solution was assayed using a y counter. The protein concentration of a portion thereof was determined by the BCA method (Pierce). The cell association (μg/mg cell protein) of [^125I]AcLDL was calculated by dividing the radioactivity (cpm) of the cell extraction solution by the specific activity (cpm/μg) of [^125I]AcLDL and the cell protein amount (mg) per dish [Miyazaki A et al., J Biol Chem. 1994; 269: 5264-5269].
[^125I]AcLDL incorporated by macrophages via scavenger receptors are degraded in the lysosome. […]
A portion (750 μL) was collected from each culture supernatant into a polystyrene tube (12×75 mm, Fisher Scientific Company). […] In addition, the peptide from [^125I]AcLDL that had been processed by cells was exclusively detected in the trichloroacetic acid soluble fraction. […]

[2] = system: ACAT-1 protein expression; assay: ACAT-1 protein expression in cultured human monocyte-derived macrophages after differentiation (Western blotting); type: cell-based; conditions: cultured 3 more days
Procedure: For ACAT-1 protein detection, an anti-human ACAT-1 polyclonal antibody (DM10 donated from Dr. Chang, Dartmouth Medical School) [Chang CCY et al., J Biol Chem. 1995; 270: 29532-29540] prepared by immunizing a rabbit was used as a primary antibody (final concentration: 0.5 μg/mL) for a reaction on a transfer membrane at room temperature for 1 hour. The transfer membrane was washed with PBS-0.1% Tween 20, followed by a reaction with a secondary antibody (anti-rabbit IgG antibody: anti-rabbit IgG donkey antibody conjugated with horseradish peroxidase (HRP) (GE Healthcare Bio-Science)) at room temperature for 1 hour. For a secondary antibody, a stock solution (0.5 μL) was diluted 10,000-fold with PBS-0.1% Tween 20 (5 mL), and the resultant was used. Washing was carried out with PBS-0.1% Tween 20, followed by ACAT-1 protein detection with the use of Lumi-Light Plus (PerkinElmer Life Sciences).
In each of the experiments in Examples 1 to 6, salusin-α and salusin-β were added in the phase of differentiation of cultured human monocytes into macrophages and cells obtained on Day 7 of culture were used to examine the effects of salusin-α and salusin-13. In this Example, it was examined whether salusin-α and salusin-β would have similar effects on ACAT-1 protein expression in macrophages obtained after differentiation. […]

| Substance | [125I]AcLDL association assay vs control cells [1] | [125I]AcLDL degradation assay vs control cells [1] | ACAT-1 protein expression level, percent of that of the control ([2]; 1.0 nM added on Day 7 after differentiation) | ACAT-1 protein expression level relative to control ([2]; 0.6 nM added on Day 7 after differentiation) |
| --- | --- | --- | --- | --- |
| salusin-α: peptide (SEQ ID NO: 1) comprising 28 amino acid residues, generated by processing from preprosalusin (SGALPPAPAAPRPALRAQRAGPAGPGAK; listed as Homo sapiens) | no significant changes | no significant changes | 60% | – |
| salusin-β: peptide (SEQ ID NO: 3) comprising 20 amino acid residues, generated by processing from preprosalusin (AIFIFIRWLLKLGHHGRAPP; listed as Homo sapiens) [reference compound] | no significant changes | no significant changes | – | 2.2 times |
